From patent US9238639B2, “Aromatic ring compound” (TAKEDA PHARMACEUTICAL COMPANY LIMITED, priority 2012, dated 2016)

What follows are molecules tested against T1, human GOAT (Homo sapiens, UniProt Q96T53) (assay: GOAT enzyme activity measurement by HTRF method (human GOAT-expressing microsome fraction)). Conditions: 10 μM compound; human GOAT-expressing Sf9 microsome fraction; octanoyl-CoA and Ghrelin-biotin substrates; 0% control without compound, 100% control without enzyme.
T1 construct: made in house; host or cells: Sf9 insect cells (BacToBac baculovirus, pFastBac1 vector); microsome fraction
T1 sequence (Q96T53 1-435): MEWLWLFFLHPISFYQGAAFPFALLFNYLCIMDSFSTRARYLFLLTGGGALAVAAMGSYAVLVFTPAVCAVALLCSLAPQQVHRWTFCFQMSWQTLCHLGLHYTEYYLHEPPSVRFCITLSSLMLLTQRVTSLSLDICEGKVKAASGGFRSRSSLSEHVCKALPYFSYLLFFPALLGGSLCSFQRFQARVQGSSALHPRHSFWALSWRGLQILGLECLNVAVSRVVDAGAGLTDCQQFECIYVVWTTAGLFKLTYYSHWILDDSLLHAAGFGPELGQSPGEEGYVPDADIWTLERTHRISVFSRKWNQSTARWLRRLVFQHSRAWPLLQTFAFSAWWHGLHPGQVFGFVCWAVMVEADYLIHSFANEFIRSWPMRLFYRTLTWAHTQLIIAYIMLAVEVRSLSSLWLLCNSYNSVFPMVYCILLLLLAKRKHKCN
Assay type: biochemical
Method: Human GOAT (Accession NO: EU518495) cDNA was amplified by PCR including reaction of (1) 98° C., 1 min, (2) 35 repeats of 98° C., 10 sec·65° C., 15 sec·72° C., 80 sec, and (3) 72° C., 5 min, using human stomach cDNA library (Takara Bio) as a template and Pyrobest DNA Polymerase (Takara Bio). The amplified fragment was treated with restriction enzymes, inserted into Stu I/Not I sites of pFastBacl (Invitrogen) by using Ligation High (TOYOBO), and transfected into ECOS JM109 (Nippon Gene) to construct pFB/hGOAT.
Production of Baculovirus and Preparation of Insect Cell Microsome Fraction
For preparation of baculovirus from pFB/hGOAT, BacToBac baculovirus expression system (Invitrogen) was used. The virus titer was measured by Real-Time PCR using SYBR Green (Takara Bio). Sf9 cells were infected with the obtained baculovirus at Multiplicity of Infection (MOI)=0.2, and cultured for 70 hr. The Sf9 cells were recovered, suspended in a suspension buffer (TBS (0.3 M NaCl), 1 mM DTT, 1 mM EDTA, Complete (Roche) (1 tablet/50 mL)), and the cells were disrupted twice on ice at 20000 rpm, 30 sec using a polytron homogenizer. The cell disruption solution was centrifuged at 1000 rpm for 10 min at 4° C., the supernatant was further ultracentrifuged at 40000 rpm for 30 min at 4° C. and the precipitate was recovered. The obtained precipitate was suspended in the suspension buffer used above to give a human GOAT-expressing microsome fraction. The protein level was measured using BCA Protein assay Reagent (PIERCE).
Enzyme Activity Measurement by HTRF Method
A compound solution (2 μL) diluted with an assay buffer containing 50 mM Tris-HCl (pH 7.5), 0.5% TWEEN20, and Complete to 15% DMSO and 90 μg/mL human GOAT-expressing microsome fraction (2 μL) were incubated at room temperature for 20 min, after which a substrate mixed solution (2 μL) containing 30 μM octanoyl-CoA (CHEM-IMPLEX) and 3 μM Ghrelin-biotin ([…]epsilon aminocaproic acid-biotin (Greiner Coutom synthesis)) was added to 384 white small volume plate (Greiner). After reaction for 20 min, 2 μL of citrate buffer (pH3) (mixed solution of 0.1 M citric acid (39.8 mL) and 0.2 M Na2HPO4 (10.2 mL)), 2 μL of 25 nM anti-active ghrelin antibody (produced in mouse), 5 μL of Eu(K)-Anti Mouse IgG Pab (Cis Bio) 100-fold diluted with HTRF detection buffer (Cis Bio) and 5 μL of streptavidin-Xlent (Cis Bio) 66.6-fold diluted with HTRF detection buffer (Cis Bio) were added. After incubation at room temperature for 1 hr or longer, the fluorescence values at 620 nm and 665 nm were measured by Envision (PerkinElmer). The data was calculated [(665 nm signal/620 nm signal)×10^4], and the inhibitory activity against human GOAT was shown by the data where 0% control was without compound, and 100% control was without enzyme.

Row | inhibition at 10 µM | SMILES
1 | 67% | O=C(O)Cc1csc2cc([S+]([O-])Cc3ccc(Cl)cc3Cl)ccc12 (stereo not shown) [Example 84, (6-((2,4-Dichlorobenzyl)sulfinyl)-1-benzothiophen-3-yl)acetic acid]
2 | 99.2% | Cc1nc(C(F)(F)F)ccc1COc1cc(C)c2c(CC(=O)O)csc2c1 [Example 10, (4-Methyl-6-((2-methyl-6-(trifluoromethyl)pyridin-3-yl)methoxy)-1-benzothiophen-3-yl)acetic acid]
3 | 107% | Cn1nc(C(F)(F)F)cc1COc1cc(Cl)c2c(CC(=O)O)csc2c1F [Example 38, (4-Chloro-7-fluoro-6-((1-methyl-3-(trifluoromethyl)-1H-pyrazol-5-yl)methoxy)-1-benzothiophen-3-yl)acetic acid]
4 | 106% | Cc1nc(C(F)(F)F)ccc1COc1cc(C)c2c(CC(=O)O)csc2c1F [Example 36, (7-Fluoro-4-methyl-6-((2-methyl-6-(trifluoromethyl)pyridin-3-yl)methoxy)-1-benzothiophen-3-yl)acetic acid]
5 | 92.7% | COC(=O)Cc1coc2c(C)c(OCc3ccc(C)nc3C)cc(C)c12 [Example 43, Methyl(6-((2,6-dimethylpyridin-3-yl)methoxy)-4,7-dimethyl-1-benzofuran-3-yl)acetate]
6 | 99% | O=C(O)CC1CSc2cc(OCc3ccc(Cl)cc3Cl)ccc21 (stereo not shown) [Example 50, (6-((2,4-Dichlorobenzyl)oxy)-2,3-dihydro-1-benzothiophen-3-yl)acetic acid]
7 | 97.4% | COC(=O)Cc1csc2cc(OCc3cc(C)nn3C)cc(Cl)c12 [Example 25, Methyl(4-chloro-6-((1,3-dimethyl-1H-pyrazol-5-yl)methoxy)-1-benzothiophen-3-yl)acetate]
8 | 100% | O=C(O)Cc1coc2c(Cl)c(OCc3ccc(Cl)cc3Cl)ccc12 [Example 42, (7-Chloro-6-((2,4-dichlorobenzyl)oxy)-1-benzofuran-3-yl)acetic acid]
9 | 96.2% | Cc1cc(OCc2ccc(Cl)cc2Cl)c(C)c2c1C(CC(=O)O)CO2 (stereo not shown) [Example 291, (6-((2,4-Dichlorobenzyl)oxy)-4,7-dimethyl-2,3-dihydro-1-benzofuran-3-yl)acetic acid]
10 | 84.4% | COC(=O)Cc1csc2cc(OCc3ccc(Cl)cc3Cl)cc(C)c12 [Example 5, Methyl(6-((2,4-dichlorobenzyl)oxy)-4-methyl-1-benzothiophen-3-yl)acetate]
11 | 104% | Cn1nc(C(F)(F)F)cc1COc1cc(F)c2c(CC(=O)O)csc2c1 [Example 303, (4-Fluoro-6-((1-methyl-3-(trifluoromethyl)-1H-pyrazol-5-yl)methoxy)-1-benzothiophen-3-yl)acetic acid]
12 | 105% | Cn1nc(C(F)(F)F)cc1COc1cc(Cl)c2c(CC(=O)O)csc2c1 [Example 22, (4-Chloro-6-((1-methyl-3-(trifluoromethyl)-1H-pyrazol-5-yl)methoxy)-1-benzothiophen-3-yl)acetic acid]
13 | 99.3% | O=C(O)Cc1csc2cc(SCc3ccc(Cl)cc3Cl)ccc12 [Example 80, (6-((2,4-Dichlorobenzyl)sulfanyl)-1-benzothiophen-3-yl)acetic acid]
14 | 99.9% | COC(=O)Cc1csc2cc(OCc3cc(C(F)(F)F)nn3C)cc(F)c12 [Example 302, Methyl (4-fluoro-6-((1-methyl-3-(trifluoromethyl)-1H-pyrazol-5-yl)methoxy)-1-benzothiophen-3-yl)acetate]
15 | 104% | Cc1cc(OCc2cc(C(F)(F)F)nn2C)cc2scc(CC(=O)O)c12 [Example 12, (4-Methyl-6-((1-methyl-3-(trifluoromethyl)-1H-pyrazol-5-yl)methoxy)-1-benzothiophen-3-yl)acetic acid]
16 | 94% | COC(=O)Cc1csc2c(F)c(OCc3ccc(C(F)(F)F)nc3C)cc(C)c12 [Example 35, Methyl(7-fluoro-4-methyl-6-((2-methyl-6-(trifluoromethyl)pyridin-3-yl)methoxy)-1-benzothiophen-3-yl)acetate]
17 | 93.8% | COC(=O)Cc1csc2cc(OCc3ccc(C(F)(F)F)nc3C)cc(C)c12 [Example 9, Methyl(4-methyl-6-((2-methyl-6-(trifluoromethyl)pyridin-3-yl)methoxy)-1-benzothiophen-3-yl)acetate]
18 | 59% | CCC(=O)NCC[C@@H]1COc2cc(OCc3ccc(Cl)cc3Cl)ccc21 [Example 198, N-(2-((3S)-6-((2,4-Dichlorobenzyl)oxy)-2,3-dihydro-1-benzofuran-3-yl)ethyl)propanamide]
19 | 94.9% | COC(=O)Cc1csc2cc(OCc3ccc(C(F)(F)F)nc3C)cc(F)c12 [Example 304, Methyl (4-fluoro-6-((2-methyl-6-(trifluoromethyl)pyridin-3-yl)methoxy)-1-benzothiophen-3-yl)acetate]
20 | 103% | Cc1ccc(COc2cc(C(F)(F)F)c3c(CC(=O)O)csc3c2)c(C)n1 [Example 31, (6-((2,6-Dimethylpyridin-3-yl)methoxy)-4-(trifluoromethyl)-1-benzothiophen-3-yl)acetic acid]
21 | 69% | CC(=O)NCC[C@@H]1COc2cc(OCc3ccc(Cl)cc3Cl)ccc21 [Example 197, N-(2-((3S)-6-((2,4-Dichlorobenzyl)oxy)-2,3-dihydro-1-benzofuran-3-yl)ethyl)acetamide]
22 | 100% | Cc1nc(C(F)(F)F)ncc1COc1cc(C)c2c(CC(=O)O)csc2c1 [Example 140, (4-Methyl-6-((4-methyl-2-(trifluoromethyl)pyrimidin-5-yl)methoxy)-1-benzothiophen-3-yl)acetic acid]
23 | 106% | Cc1nc(C(F)(F)F)ccc1COc1cc(Cl)c2c(CC(=O)O)csc2c1F [Example 40, (4-Chloro-7-fluoro-6-((2-methyl-6-(trifluoromethyl)pyridin-3-yl)methoxy)-1-benzothiophen-3-yl)acetic acid]
24 | 106% | Cc1nc(C(F)(F)F)ccc1COc1cc(Cl)c2c(CC(=O)O)csc2c1Cl [Example 30, (4,7-Dichloro-6-((2-methyl-6-(trifluoromethyl)pyridin-3-yl)methoxy)-1-benzothiophen-3-yl)acetic acid]
25 | 83% | O=C(O)Cc1csc2cc(S(=O)(=O)Cc3ccc(Cl)cc3Cl)ccc12 [Example 83, (6-((2,4-Dichlorobenzyl)sulfonyl)-1-benzothiophen-3-yl)acetic acid]
26 | 62.8% | COC(=O)Cc1csc2c(C)c(OCc3ccc(C(F)(F)F)nc3C)cc(C)c12 [Example 23, Methyl(4,7-dimethyl-6-((2-methyl-6-(trifluoromethyl)pyridin-3-yl)methoxy)-1-benzothiophen-3-yl)acetate]
27 | 92.7% | COC(=O)Cc1csc2c(Cl)c(OCc3cc(C(F)(F)F)nn3C)cc(Cl)c12 [Example 27, Methyl(4,7-dichloro-6-((1-methyl-3-(trifluoromethyl)-1H-pyrazol-5-yl)methoxy)-1-benzothiophen-3-yl)acetate]
28 | 99.2% | O=C(O)Cc1csc2cc(OCc3ccc(Cl)cc3Cl)ccc12 [Example 2, (6-((2,4-Dichlorobenzyl)oxy)-1-benzothiophen-3-yl)acetic acid]
